For the assay, the system named is sheep mammary gland. The assay is described as follows: Single intramammary infusion of lipopolysaccharide, MAL cell collection. The assay is classed as in vivo.

Regarding lipopolysaccharide, the MAL cell influx result is, setting by setting: (24 h after single intramammary infusion) “predominantly neutrophils”; (day 5 after single intramammary infusion) “macrophage infiltration”.
